Activity calls are given as the source filed them.

Series [1] can be described thus: NIH3T3 cell viability loss – ATP luminescence, mouse fibroblasts, counter-screen, dose response (AID 2010).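 Note: cells exposed to compound for about 90 hours before reading.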 The series is classed as functional, cell-based.
Series [2] in a line: Trypanosoma cruzi growth suppression in host cells – NIH3T3 host cells, beta-gal luminescence, confirmation (AID 2044).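 Note: intracellular parasites grown in NIH/3T3 mouse fibroblasts as host cells; luminescent beta-galactosidase reporter signal from transgenic T. cruzi replicating inside host cells; inhibitors lower the luminescence signal.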 It counts as functional, cell-based.
Series [3] can be described thus: viability loss in Vero cells – cytotoxicity control for Vif-APOBEC3G degradation inhibitor project, dose response (AID 1117358). Conditions: Vero. It counts as functional.
Series [4] concerns the target Protein Tat (Human immunodeficiency virus type 1 group M subtype B (isolate HXB2)(HIV-1), UniProt P04608). It counts as functional.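 Note: tat binding to TAR RNA read out by fluorescence polarization.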
In series [5] the test system is Vero. As to the kind of experiment: viability of Vero cells under compound – cytotoxicity control for flavivirus capping enzyme inhibitors (AID 588742). The series is classed as functional. As to conditions: Chlorocebus sabaeus.
The target of series [6] is Cytochrome P450 2C19 (Homo sapiens, UniProt P33261). As to the kind of experiment: Cytochrome panel assay with activity outcomes. Panel member name: p450-cyp2c19 Compounds with AC50 equal or less than 10 uM are considered active. It counts as functional. As to conditions: read-out: AC50.
Series [7] addresses 72 kDa type IV collagenase (Homo sapiens, UniProt P08253). As to the kind of experiment: Dose Response validation of uHTS RPN11 inhibitor hits using a MMP-2 Fluorescence assay. It counts as functional.
The target in series [8] is 26S proteasome non-ATPase regulatory subunit 14 (Homo sapiens, UniProt O00487). As to the kind of experiment: inhibition of proteasome subunit RPN11 – biochemical, fluorescence polarization, uHTS hits, confirmation (AID 602368). It counts as functional. A general note: Polarisation of emitted light reports the rotation of a fluorescent probe.
Series [9] addresses T1, Voltage-gated N-type calcium channel alpha-1B subunit/Amyloid beta A4 precursor protein-binding family A member 1 (Homo sapiens, UniProt Q00975+Q02410). It counts as protein assay.
The target of series [10] is Cytochrome P450 3A4 (Homo sapiens, UniProt P08684).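 Note: CYP3A4 tested as one member of a cytochrome P450 panel screen.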
The target in series [11] is T2, Fibrinogen beta chain (Homo sapiens, UniProt P02675). As to the kind of experiment: Fluorescence polarization-based biochemical high throughput dose response assay to identify inhibitors that disrupt the binding of a cyclic peptide (Tn7) to the fibrin proteolytic product D-Dimer and fragment E complex [DD(E )].
The target of series [12] is Prothrombin (Bos taurus, UniProt P00735). As to the kind of experiment: thrombin protease inhibitors – biochemical, fluorescence polarization, uHTS hits, dose response (AID 602369). It counts as functional.
Series [13] deals with T2, Fibrinogen beta chain. As to the kind of experiment: Fluorescence polarization-based biochemical high throughput dose response assay to identify inhibitors that disrupt the binding of a cyclic peptide (Tn6) to the fibrin proteolytic product D-Dimer and fragment E complex [DD(E )].
The target of series [14] is T1, Voltage-gated N-type calcium channel alpha-1B subunit/Amyloid beta A4 precursor protein-binding family A member 1. The series is classed as protein assay. This is another data set of the same source.
Series [15] has as its target T3, Protein RecA (Mycobacterium tuberculosis, UniProt P9WHJ3).
T3 sequence (P9WHJ3 whole entry): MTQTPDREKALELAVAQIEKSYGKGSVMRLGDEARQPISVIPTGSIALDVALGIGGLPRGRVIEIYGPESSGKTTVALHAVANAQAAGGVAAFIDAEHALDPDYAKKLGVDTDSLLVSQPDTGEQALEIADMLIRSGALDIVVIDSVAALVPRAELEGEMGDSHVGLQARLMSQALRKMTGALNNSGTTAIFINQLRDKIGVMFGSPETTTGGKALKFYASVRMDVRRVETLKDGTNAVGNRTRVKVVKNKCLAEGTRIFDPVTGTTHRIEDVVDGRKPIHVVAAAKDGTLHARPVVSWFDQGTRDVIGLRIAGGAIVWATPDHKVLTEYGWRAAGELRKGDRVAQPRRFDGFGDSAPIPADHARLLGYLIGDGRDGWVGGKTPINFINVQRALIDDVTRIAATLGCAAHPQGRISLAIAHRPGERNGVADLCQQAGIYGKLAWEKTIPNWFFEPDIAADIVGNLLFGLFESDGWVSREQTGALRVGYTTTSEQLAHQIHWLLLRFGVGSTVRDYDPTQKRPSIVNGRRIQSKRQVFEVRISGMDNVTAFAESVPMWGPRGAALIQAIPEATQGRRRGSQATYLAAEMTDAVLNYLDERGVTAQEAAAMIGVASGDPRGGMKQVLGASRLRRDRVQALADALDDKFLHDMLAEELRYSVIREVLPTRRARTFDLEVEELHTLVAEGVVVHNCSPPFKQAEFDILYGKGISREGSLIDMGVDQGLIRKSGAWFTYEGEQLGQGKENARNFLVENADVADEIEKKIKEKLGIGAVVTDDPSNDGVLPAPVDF
As to the kind of experiment: Fluorescence Cell-Free Homogeneous Dose Retest to Identify Inhibitors of RecA-Intein Splicing Activity. [Related pubchem assays (depositor defined):AID2097, AID2223, AID489010, AID492950]. It counts as functional.

The target of series [16] is Heat shock protein HSP90 (Homo sapiens, UniProt P07900+P08238). As to the kind of experiment: Hsp90 blockade concentration-response – dose response (AID 712). It counts as functional.
Series [17] deals with T4, Replicative DNA helicase DnaB (Mycobacterium tuberculosis, UniProt P9WMR3).
T4 sequence (P9WMR3 whole entry): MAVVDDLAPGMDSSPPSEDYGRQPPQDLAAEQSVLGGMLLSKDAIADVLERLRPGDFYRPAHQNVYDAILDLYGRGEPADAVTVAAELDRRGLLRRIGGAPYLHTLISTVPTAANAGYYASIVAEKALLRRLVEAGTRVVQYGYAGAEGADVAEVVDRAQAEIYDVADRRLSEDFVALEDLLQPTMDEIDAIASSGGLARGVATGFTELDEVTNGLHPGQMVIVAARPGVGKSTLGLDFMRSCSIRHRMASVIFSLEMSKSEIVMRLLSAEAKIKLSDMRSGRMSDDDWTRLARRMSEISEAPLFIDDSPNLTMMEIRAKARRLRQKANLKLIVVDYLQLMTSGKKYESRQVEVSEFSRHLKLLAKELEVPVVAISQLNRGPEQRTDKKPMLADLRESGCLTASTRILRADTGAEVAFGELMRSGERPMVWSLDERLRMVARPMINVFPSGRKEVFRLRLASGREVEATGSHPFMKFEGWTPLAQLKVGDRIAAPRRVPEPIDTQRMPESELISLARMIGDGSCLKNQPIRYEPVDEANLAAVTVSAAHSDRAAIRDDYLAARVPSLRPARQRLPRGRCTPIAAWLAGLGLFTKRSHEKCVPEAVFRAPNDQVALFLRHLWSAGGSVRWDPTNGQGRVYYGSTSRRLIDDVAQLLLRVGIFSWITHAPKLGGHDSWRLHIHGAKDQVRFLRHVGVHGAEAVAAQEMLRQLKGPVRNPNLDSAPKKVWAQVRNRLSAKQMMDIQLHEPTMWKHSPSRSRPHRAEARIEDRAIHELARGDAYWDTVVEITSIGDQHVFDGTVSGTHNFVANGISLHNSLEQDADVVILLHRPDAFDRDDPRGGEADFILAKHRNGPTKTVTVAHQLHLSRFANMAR
As to the kind of experiment: DnaB intein splicing inhibitors, dose response, biochemical, cell-free fluorescence (AID 449749). The series is classed as functional.

In series [18] the target is T5, Mannose-6-phosphate isomerase (Homo sapiens, UniProt P34949).
T5 sequence (P34949 whole entry): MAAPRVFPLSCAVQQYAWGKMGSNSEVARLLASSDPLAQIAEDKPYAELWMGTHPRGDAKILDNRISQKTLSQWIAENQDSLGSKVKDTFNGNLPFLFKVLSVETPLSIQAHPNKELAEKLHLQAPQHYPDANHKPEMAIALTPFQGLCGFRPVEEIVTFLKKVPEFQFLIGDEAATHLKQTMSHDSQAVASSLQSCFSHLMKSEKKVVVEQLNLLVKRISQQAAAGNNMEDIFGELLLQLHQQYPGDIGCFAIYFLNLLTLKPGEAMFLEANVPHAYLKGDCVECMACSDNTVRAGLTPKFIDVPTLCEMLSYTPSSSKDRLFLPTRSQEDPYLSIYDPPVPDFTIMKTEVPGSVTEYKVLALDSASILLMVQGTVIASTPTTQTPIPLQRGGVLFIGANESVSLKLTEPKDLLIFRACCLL
As to the kind of experiment: MPI inhibition at elevated mannose 6-phosphate – biochemical, fluorescence intensity, high mannose 6-phosphate, primary screen (AID 1220).

T2 sequence (P02675 whole entry, the tested form may be a part): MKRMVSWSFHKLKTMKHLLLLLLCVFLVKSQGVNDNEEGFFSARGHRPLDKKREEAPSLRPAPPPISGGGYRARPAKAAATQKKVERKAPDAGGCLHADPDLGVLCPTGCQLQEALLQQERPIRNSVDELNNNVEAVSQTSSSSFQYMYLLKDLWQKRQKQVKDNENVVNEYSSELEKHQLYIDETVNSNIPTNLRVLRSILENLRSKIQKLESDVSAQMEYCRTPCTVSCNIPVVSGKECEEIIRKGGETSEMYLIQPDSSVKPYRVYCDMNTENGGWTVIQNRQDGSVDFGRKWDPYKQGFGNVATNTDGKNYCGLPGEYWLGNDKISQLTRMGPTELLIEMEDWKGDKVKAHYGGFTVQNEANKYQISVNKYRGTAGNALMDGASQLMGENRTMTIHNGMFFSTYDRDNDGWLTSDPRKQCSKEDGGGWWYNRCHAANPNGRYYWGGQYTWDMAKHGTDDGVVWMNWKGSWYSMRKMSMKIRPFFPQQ
T1 sequence (Q00975 whole entry): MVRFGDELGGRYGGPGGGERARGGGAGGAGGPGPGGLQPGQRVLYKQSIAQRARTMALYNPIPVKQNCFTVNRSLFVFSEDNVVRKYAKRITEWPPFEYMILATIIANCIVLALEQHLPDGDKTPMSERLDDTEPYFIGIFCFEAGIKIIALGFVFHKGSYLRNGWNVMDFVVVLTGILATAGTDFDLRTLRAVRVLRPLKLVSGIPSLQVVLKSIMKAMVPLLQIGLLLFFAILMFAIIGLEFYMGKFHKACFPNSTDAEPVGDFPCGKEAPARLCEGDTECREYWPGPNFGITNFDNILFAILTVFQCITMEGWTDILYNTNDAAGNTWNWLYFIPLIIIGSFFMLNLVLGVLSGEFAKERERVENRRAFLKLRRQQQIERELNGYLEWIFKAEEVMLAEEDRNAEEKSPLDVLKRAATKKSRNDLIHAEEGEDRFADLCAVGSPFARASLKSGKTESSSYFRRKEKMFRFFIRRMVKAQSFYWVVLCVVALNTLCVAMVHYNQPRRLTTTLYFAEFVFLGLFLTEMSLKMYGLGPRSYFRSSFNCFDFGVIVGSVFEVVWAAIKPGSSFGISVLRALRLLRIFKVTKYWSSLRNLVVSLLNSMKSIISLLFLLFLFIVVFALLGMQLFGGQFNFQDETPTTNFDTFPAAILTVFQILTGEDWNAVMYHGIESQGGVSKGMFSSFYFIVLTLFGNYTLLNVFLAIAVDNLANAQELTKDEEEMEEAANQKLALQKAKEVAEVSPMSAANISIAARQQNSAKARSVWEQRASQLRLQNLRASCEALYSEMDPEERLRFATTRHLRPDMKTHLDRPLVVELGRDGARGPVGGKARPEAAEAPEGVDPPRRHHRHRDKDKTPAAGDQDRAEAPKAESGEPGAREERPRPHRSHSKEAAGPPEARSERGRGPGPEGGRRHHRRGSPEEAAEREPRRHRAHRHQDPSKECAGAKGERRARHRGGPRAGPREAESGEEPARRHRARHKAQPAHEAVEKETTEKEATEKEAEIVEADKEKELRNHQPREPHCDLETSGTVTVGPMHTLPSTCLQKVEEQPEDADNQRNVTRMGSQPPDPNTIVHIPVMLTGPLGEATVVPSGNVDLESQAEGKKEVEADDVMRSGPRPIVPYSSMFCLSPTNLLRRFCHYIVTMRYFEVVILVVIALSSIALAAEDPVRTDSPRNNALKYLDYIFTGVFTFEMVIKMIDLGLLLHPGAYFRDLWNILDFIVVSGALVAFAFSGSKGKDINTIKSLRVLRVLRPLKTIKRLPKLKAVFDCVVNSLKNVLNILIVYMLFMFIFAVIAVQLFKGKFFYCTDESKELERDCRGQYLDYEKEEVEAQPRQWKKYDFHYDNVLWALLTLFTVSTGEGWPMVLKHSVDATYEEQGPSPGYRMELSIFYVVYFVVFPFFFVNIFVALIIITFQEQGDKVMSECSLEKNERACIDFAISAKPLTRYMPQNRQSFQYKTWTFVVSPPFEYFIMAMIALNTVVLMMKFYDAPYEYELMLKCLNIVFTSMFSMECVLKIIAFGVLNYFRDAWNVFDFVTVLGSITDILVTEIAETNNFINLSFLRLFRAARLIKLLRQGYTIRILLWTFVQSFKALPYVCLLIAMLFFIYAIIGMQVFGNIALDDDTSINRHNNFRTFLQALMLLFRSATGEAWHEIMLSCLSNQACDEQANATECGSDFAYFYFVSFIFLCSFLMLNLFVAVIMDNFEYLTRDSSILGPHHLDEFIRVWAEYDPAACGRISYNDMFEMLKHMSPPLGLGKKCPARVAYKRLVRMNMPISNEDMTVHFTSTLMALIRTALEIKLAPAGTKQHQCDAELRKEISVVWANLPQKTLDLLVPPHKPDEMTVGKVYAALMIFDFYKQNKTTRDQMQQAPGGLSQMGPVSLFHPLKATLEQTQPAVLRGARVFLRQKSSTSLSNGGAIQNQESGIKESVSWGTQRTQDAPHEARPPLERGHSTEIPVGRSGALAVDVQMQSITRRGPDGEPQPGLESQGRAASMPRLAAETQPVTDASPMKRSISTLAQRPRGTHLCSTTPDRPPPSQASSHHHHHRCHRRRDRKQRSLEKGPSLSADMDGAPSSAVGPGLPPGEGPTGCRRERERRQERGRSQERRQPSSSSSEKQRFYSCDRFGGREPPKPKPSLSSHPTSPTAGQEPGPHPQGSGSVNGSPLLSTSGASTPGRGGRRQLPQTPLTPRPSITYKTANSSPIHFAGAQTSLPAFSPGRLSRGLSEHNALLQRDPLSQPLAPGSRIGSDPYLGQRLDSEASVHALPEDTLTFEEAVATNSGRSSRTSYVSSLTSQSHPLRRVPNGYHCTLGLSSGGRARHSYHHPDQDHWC
T1 sequence (Q02410 whole entry): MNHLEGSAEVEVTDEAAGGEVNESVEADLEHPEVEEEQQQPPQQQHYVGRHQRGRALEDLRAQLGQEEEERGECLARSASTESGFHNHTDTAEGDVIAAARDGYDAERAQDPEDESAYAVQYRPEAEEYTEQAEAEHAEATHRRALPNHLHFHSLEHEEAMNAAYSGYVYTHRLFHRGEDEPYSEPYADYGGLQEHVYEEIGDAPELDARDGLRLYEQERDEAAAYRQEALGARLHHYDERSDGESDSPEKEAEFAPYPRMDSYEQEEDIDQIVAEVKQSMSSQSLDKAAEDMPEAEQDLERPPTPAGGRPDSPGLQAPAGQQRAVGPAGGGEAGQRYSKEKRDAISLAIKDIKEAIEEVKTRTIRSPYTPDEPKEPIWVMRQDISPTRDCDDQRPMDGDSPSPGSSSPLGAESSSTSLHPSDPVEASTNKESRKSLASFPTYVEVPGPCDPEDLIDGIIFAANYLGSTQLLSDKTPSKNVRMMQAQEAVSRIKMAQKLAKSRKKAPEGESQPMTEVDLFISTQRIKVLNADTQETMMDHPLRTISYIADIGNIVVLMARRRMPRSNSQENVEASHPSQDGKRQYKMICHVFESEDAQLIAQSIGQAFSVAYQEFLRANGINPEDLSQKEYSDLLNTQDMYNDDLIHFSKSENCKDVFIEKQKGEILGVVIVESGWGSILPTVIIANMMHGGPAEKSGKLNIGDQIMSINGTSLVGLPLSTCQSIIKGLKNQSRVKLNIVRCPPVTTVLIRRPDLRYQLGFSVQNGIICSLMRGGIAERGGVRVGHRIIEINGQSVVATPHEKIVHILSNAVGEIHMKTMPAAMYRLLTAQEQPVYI
Protein Tat, sequence (P04608 whole entry): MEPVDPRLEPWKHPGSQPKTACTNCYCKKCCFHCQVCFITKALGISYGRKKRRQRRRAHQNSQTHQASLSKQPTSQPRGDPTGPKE
Cytochrome P450 2C19, sequence (P33261 whole entry): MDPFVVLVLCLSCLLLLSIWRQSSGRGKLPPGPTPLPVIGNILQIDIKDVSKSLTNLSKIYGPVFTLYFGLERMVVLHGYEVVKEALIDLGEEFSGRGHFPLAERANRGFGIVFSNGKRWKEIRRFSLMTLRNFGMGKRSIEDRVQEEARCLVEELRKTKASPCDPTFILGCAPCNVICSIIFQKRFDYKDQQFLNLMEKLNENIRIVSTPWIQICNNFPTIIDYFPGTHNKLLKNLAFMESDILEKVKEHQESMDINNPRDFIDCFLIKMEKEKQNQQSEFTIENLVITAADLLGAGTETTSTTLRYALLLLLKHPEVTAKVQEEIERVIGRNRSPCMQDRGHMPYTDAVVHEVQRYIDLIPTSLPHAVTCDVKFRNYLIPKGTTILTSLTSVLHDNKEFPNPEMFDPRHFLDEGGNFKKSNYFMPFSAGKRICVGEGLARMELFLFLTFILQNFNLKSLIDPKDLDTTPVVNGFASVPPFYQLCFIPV
72 kDa type IV collagenase, sequence (P08253 whole entry): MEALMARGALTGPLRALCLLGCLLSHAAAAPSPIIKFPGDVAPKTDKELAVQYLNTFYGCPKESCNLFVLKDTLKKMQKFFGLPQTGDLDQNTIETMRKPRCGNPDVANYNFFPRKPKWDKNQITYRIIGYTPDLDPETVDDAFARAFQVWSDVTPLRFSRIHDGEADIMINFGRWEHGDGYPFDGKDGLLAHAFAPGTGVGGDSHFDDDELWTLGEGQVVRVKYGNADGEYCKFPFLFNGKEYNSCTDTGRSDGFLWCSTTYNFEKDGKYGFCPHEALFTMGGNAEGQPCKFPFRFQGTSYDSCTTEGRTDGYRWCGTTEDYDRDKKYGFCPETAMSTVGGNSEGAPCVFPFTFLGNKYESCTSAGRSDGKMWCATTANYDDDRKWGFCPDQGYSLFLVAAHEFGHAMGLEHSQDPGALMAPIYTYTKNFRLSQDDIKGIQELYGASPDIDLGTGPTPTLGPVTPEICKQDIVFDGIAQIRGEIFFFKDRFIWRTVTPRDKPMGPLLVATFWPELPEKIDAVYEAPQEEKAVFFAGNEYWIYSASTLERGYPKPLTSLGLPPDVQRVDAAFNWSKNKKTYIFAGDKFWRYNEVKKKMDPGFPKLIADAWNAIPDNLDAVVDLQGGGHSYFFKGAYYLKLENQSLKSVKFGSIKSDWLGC

For the compound `CN(C)S(=O)(=O)c1ccc(NC(=O)N2CCN(c3cccc(C(F)(F)F)c3)CC2)cc1`, the 50% effective concentration (EC50) (usually the concentration that produces a half-maximal response) was > 60 µM (not active) in [1] and 3.61 µM (active) in series [2]. Further, the cytotoxic concentration (CC50) (commonly the concentration at which the toxic effect on the cells reaches its halfway point) in series [3] was > 40 µM (active).
`COC(=O)C1=C(O)/C(=C\c2ccc(CNC(=O)C(=O)Nc3ccc(C)cc3)o2)N=C1C`: the IC50 (commonly the midpoint of a concentration-inhibition curve) in series [4] is 22.5 µM (inconclusive). The 50% cytotoxic concentration (CC50) in series [5] is 19 µM (active).
Take `NS(=O)(=O)c1ccc(NS(=O)(=O)c2ccc(NC(=O)c3ccc(-c4ccccc4)cc3)cc2)cc1`: the results for the AC50 in [6] and in series [10] were 0.562 µM (inconclusive) and “inconclusive”, respectively. The IC50 in series [7] is > 100 µM (inactive); in [8], 6.71 µM (active); in series [9], > 50 µM (inactive); in series [11], > 83.3 µM (inactive); in series [12], 33.4 µM (active); in [13] it was 14.3 µM (inactive). In addition, the IC50 in series [14] is 12.1 µM (active).
With `Oc1ccc(/C=N/c2ccc3ncccc3c2)c(O)c1`, the concentration giving a half-maximal response (EC50) in [15] is 29 µM (active). Besides, the half-inhibitory concentration (IC50) in [16] was > 50 µM; in series [18], > 50 µM (not active). Moreover, the AC50 (in general, the concentration giving half of the maximal activity seen) in series [17] was 11.5 µM (active).

The values are drawn from ChEMBL document CHEMBL1201862, “PubChem BioAssay data set” (2004).
